In EP2998294A1, “Naphthyl sulfonamide phenyl derivatives as KEAP-1 modulators for the treatment of diabetes, obesity, dyslipidemia and related disorders” (SANOFI, priority 2014, dated 2016):
pIC50: −log10 of the molar value.

Each molecule was assayed against T1, human Keap1 kelch domain (amino acids Ala321-Thr609) (Homo sapiens, UniProt Q14145) (assay: Keap1-Nrf2 peptide binding assay (fluorescence polarisation)). Conditions: not given.
T1 construct: human Keap1 kelch domain (amino acids Ala321-Thr609)
Procedure: A fluorescence polarisation assay was used to measure binding of the human Keap1 kelch domain (amino acids Ala321-Thr609) to a fluorescently labeled peptide containing a Keap1 binding site of human Nrf2 (Alexa633-AFFAQLQLDEETGEFL; JPT Technologies, Berlin, Germany). Two microliters of test compound in reaction buffer (phosphate-buffered saline, 2 mM DL-dithiothreitol, 0.015 % (v/v) Brij-35) containing 6 % (v/v) DMSO were mixed with two microliters of the Keap1 kelch domain in reaction buffer in a black 384-well small volume microtiter plate and incubated at ambient temperature for 15 minutes. Thereafter, two microliters were added of the fluorescently labeled Nrf2 peptide in reaction buffer, and the mixture was incubated for a further 30 minutes at ambient temperature. Final concentrations of the Keap1 kelch domain and the fluorescently labeled Nrf2 peptide were 20 nM and 50 nM, respectively.
Fluorescence polarization (FP) was measured at excitation and emission wavelengths of 635 nm and 660 nm, respectively. Positive controls for binding (two microliters of reaction buffer containing 6 % (v/v) DMSO instead of test compound in the same buffer) and negative controls (as positive controls, but without Keap1 kelch domain) were included on each microtiter plate. Data were expressed as percent-inhibition values: percentinhibition = 100⋅(1-(|FPcompound-FPnegative controle|)/(|FPpositive controle-FPnegative controle|)) [formula]
IC50 values were determined by testing different compound concentrations and fitting the resulting percent-inhibition values to the following equation using XLFit4: percentinhibition = A + (B-A)/(1 + (((IC50)/([Compound])))^D) [formula]
Parameter A was set to zero, pre-fit values for parameters B and D were set to 100 and 1, respectively.

T1 sequence (Q14145 321-609): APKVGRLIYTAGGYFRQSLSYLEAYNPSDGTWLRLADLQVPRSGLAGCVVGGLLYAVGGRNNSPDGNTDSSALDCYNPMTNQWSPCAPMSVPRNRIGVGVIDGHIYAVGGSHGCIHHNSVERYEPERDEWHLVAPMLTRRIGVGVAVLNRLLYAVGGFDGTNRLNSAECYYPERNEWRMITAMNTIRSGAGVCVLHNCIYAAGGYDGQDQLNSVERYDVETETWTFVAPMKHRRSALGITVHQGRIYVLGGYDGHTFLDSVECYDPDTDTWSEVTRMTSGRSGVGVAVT

Structure (SMILES)	pIC50
O=C1Cc2cc(S(=O)(=O)Nc3ccc(-c4cccc(C(=O)O)c4)c4ccccc34)ccc2N1 [Example 51, [4-[(2-oxoindolin-5-yl)sulfonylamino]-1-naphthyl]benzoic acid]	5.11

Same assay, conditions: binding of Keap1 kelch domain (20 nM) to fluorescently labeled Nrf2 peptide (50 nM)

Structure (SMILES)	pIC50
O=C(O)c1cccc(-c2ccc(NS(=O)(=O)c3ccc(Cl)c(C(F)(F)F)c3)c3ccccc23)c1 [Example 37, [4-[[4-chloro-3-(trifluoromethyl)phenyl]sulfonylamino]-1-naphthyl]benzoic acid]	5.40
O=C(O)c1cccc(-c2ccc(NS(=O)(=O)c3ccc(OC(F)(F)F)c(Cl)c3)c3ccccc23)c1 [Example 38, 3-[4-[[3-chloro-4-(trifluoromethoxy)phenyl]sulfonylamino]-1-naphthyl]benzoic acid]	5.17
O=C(O)c1cccc(-c2ccc(NS(=O)(=O)c3cc(Cl)c(F)cc3F)c3ccccc23)c1 [Example 40, 3-[4-[(5-chloro-2,4-difluorophenyl)sulfonylamino]-1-naphthyl]benzoic acid]	5.36
Cc1ccc(Cl)cc1S(=O)(=O)Nc1ccc(-c2cccc(C(=O)O)c2)c2ccccc12 [Example 41, 3-[4-[(5-chloro-2-methylphenyl)sulfonylamino]-1-naphthyl]benzoic acid]	5.85
O=C(O)c1cccc(-c2ccc(NS(=O)(=O)c3cc(F)cc(F)c3F)c3ccccc23)c1 [Example 42, 3-[4-[(2,3,5-trifluorophenyl)sulfonylamino]-1-naphthyl]benzoic acid]	5.19
CN1CCOc2cc(S(=O)(=O)Nc3ccc(-c4cccc(C(=O)O)c4)c4ccccc34)ccc21 [Example 43, 3-[4-[(4-methyl-2,3-dihydro-1,4-benzoxazin-7-yl)sulfonylamino]-1-naphthyl]benzoic acid]	5.80
O=C(O)c1cccc(-c2ccc(NS(=O)(=O)c3ccc4ncsc4c3)c3ccccc23)c1 [Example 44, 3-[4-(1,3-benzothiazol-6-ylsulfonylamino)-1-naphthyl]benzoic acid]	5.42
Cc1c(Cl)cc(F)cc1S(=O)(=O)Nc1ccc(-c2cccc(C(=O)O)c2)c2ccccc12 [Example 46, 3-[4-[(3-chloro-5-fluoro-2-methylphenyl)sulfonylamino]-1-naphthyl]benzoic acid]	5.68
Cc1cc(NC(=O)c2ccccc2)ccc1S(=O)(=O)Nc1ccc(-c2cccc(C(=O)O)c2)c2ccccc12 [Example 47, 3-[4-[(4-benzamido-2-methylphenyl)sulfonylamino]-1-naphthyl]benzoic acid]	5.30
O=C(O)c1cccc(-c2ccc(NS(=O)(=O)c3cc(Cl)cc(Cl)c3)c3ccccc23)c1 [Example 48, 3-[4-[(3,5-dichlorophenyl)sulfonylamino]-1-naphthyl]benzoic acid]	5.64
O=C(O)c1cccc(-c2ccc(NS(=O)(=O)c3cc(Cl)sc3Cl)c3ccccc23)c1 [Example 49, 3-[4-[(2,5-dichloro-3-thienyl)sulfonylamino]-1-naphthyl]benzoic acid]	5.77
O=C(O)c1cccc(-c2ccc(NS(=O)(=O)c3c(Cl)cc(C(F)(F)F)cc3Cl)c3ccccc23)c1 [Example 52, 3-[4-[[2,6-dichloro-4-(trifluoromethyl)phenyl]sulfonylamino]-1-naphthyl]benzoic acid]	5.85
Cc1ccc(C#N)c(S(=O)(=O)Nc2ccc(-c3cccc(C(=O)O)c3)c3ccccc23)c1 [Example 53, 3-[4-[(2-cyano-5-methylphenyl)sulfonylamino]-1-naphthyl]benzoic acid]	5.17
O=C(O)c1cccc(-c2ccc(NS(=O)(=O)c3cc(Cl)ccc3Cl)c3ccccc23)c1 [Example 54, 3-[4-[(2,5-dichlorophenyl)sulfonylamino]-1-naphthyl]benzoic acid]	5.43
Cc1cc(Cl)c(C)c(S(=O)(=O)Nc2ccc(-c3cccc(C(=O)O)c3)c3ccccc23)c1Cl [Example 57, 3-[4-[(2,5-dichloro-3,6-dimethylphenyl)sulfonylamino]-1-naphthyl]benzoic acid]	6.22
O=C(O)c1ccc(F)c(-c2ccc(NS(=O)(=O)c3cccc(Cl)c3Cl)c3ccccc23)c1 [Example 74, 3-[4-[(2,3-dichlorophenyl)sulfonylamino]-1-naphthyl]-4-fluoro-benzoic acid]	6.05

Same assay, conditions: binding of Keap1 kelch domain (20 nM) to fluorescently labeled Nrf2 peptide (50 nM); read-out: IC50

Structure (SMILES)	pIC50
Cc1nc(-c2ccccc2)sc1S(=O)(=O)Nc1ccc(-c2cccc(C(=O)O)c2)c2ccccc12 [Example 39, 3-[4-[(4-methyl-2-phenyl-thiazol-5-yl)sulfonylamino]-1-naphthyl]benzoic acid]	5.55
Cc1cc(NC(=O)N2CCOCC2)ccc1S(=O)(=O)Nc1ccc(-c2cccc(C(=O)O)c2)c2ccccc12 [Example 45, 3-[4-[[2-methyl-4-(morpholine-4-carbonylamino)phenyl]sulfonylamino]-1-naphthyl]benzoic acid]	5.60
Cc1nn(-c2ccccc2)c(C)c1S(=O)(=O)Nc1ccc(-c2cccc(C(=O)O)c2)c2ccccc12 [Example 50, 3-[4-[(3,5-dimethyl-1-phenyl-pyrazol-4-yl)sulfonylamino]-1-naphthyl]benzoic acid]	5.80
O=C(O)c1cccc(-c2ccc(NS(=O)(=O)c3ccc4c(c3)OCCO4)c3ccccc23)c1 [Example 55, 3-[4-(2,3-dihydro-1,4-benzodioxin-6-ylsulfonylamino)-1-naphthyl]benzoic acid]	5.37
Cc1nn(C)c(Cl)c1S(=O)(=O)Nc1ccc(-c2cc(C(=O)O)ccc2F)c2ccccc12 [Example 56, 3-[4-[(5-chloro-1,3-dimethyl-pyrazol-4-yl)sulfonylamino]-1-naphthyl]-4-fluorobenzoic acid]	6.52
Cc1cc(S(=O)(=O)Nc2ccc(-c3cccc(C(=O)O)c3)c3ccccc23)c(C)o1 [Example 58, 3-[4-[(2,5-dimethyl-3-furyl)sulfonylamino]-1-naphthyl]benzoic acid]	5.34
CCCCCCCCc1cc(-c2cccc(C(=O)O)c2)c2ccccc2c1NS(=O)(=O)c1c(C)c(C)cc(C)c1C [Example 59, 3-[3-octyl-4-[(2,3,5,6-tetramethylphenyl)sulfonylamino]-1-naphthyl]benzoic acid]	4.34
O=C(O)c1cccc(-c2ccc(NS(=O)(=O)c3c(Cl)nc4sccn34)c3ccccc23)c1 [Example 60, 3-[4-[(6-chloroimidazo[2,1-b]thiazol-5-yl)sulfonylamino]-1-naphthyl]benzoic acid]	6.05
Cc1ccc2c(NS(=O)(=O)c3c(C)c(C)cc(C)c3C)ccc(-c3cc(C(=O)O)ccc3F)c2n1 [Example 61, 4-fluoro-3-[2-methyl-5-[(2,3,5,6-tetramethylphenyl)sulfonylamino]-8-quinolyl]benzoic acid; 2,2,2-trifluoroacetic acid]	6.30
CCCCn1cc(S(=O)(=O)Nc2ccc(-c3cccc(C(=O)O)c3)c3ccccc23)c(C)n1 [Example 62, 3-[4-[(1-butyl-3-methyl-pyrazol-4-yl)sulfonylamino]-1-naphthyl]benzoic acid]	6.15
CCCn1ncc(S(=O)(=O)Nc2ccc(-c3cccc(C(=O)O)c3)c3ccccc23)c1C [Example 63, 3-[4-[(5-methyl-1-propyl-pyrazol-4-yl)sulfonylamino]-1-naphthyl]benzoic acid]	5.49
Cc1nn(CC(C)C)cc1S(=O)(=O)Nc1ccc(-c2cccc(C(=O)O)c2)c2ccccc12 [Example 64, 3-[4-[(1-isobutyl-3-methyl-pyrazol-4-yl)sulfonylamino]-1-naphthyl]benzoic acid]	5.35
Cc1c(S(=O)(=O)Nc2ccc(-c3cccc(C(=O)O)c3)c3ccccc23)cnn1C1CCCC1 [Example 67, 3-[4-[(1-cyclopentyl-5-methyl-pyrazol-4-yl)sulfonylamino]-1-naphthyl]benzoic acid]	5.74
Cc1c(S(=O)(=O)Nc2ccc(-c3cccc(C(=O)O)c3)c3ccccc23)cnn1CC(C)C [Example 68, 3-[4-[(1-isobutyl-5-methyl-pyrazol-4-yl)sulfonylamino]-1-naphthyl]benzoic acid]	5.62
CCCCn1cc(S(=O)(=O)Nc2ccc(-c3cc(C(=O)O)ccc3F)c3ccccc23)c(C)n1 [Example 70, 3-[4-[(1-butyl-3-methyl-pyrazol-4-yl)sulfonylamino]-1-naphthyl]-4-fluorobenzoic acid]	5.59
CCCCn1cc(S(=O)(=O)Nc2ccc(-c3cccc(C(=O)O)c3)c3nc(C)ccc23)c(C)n1 [Example 71, 3-[5-[(1-butyl-3-methyl-pyrazol-4-yl)sulfonylamino]-2-methyl-8-quinolyl]benzoic acid]	4.66
CCCn1ncc(S(=O)(=O)Nc2ccc(-c3cc(C(=O)O)ccc3F)c3ccccc23)c1C [Example 72, 4-fluoro-3-[4-[(5-methyl-1-propyl-pyrazol-4-yl)sulfonylamino]-1-naphthyl]benzoic acid]	5.85
Cc1ccc(S(=O)(=O)Nc2ccc(-c3cccc(C(=O)O)c3)c3ccccc23)c(Cl)n1 [Example 73, 3-[4-[(2-chloro-6-methyl-3-pyridyl)sulfonylamino]-1-naphthyl]benzoic acid]	5.11
